# Source: ChEMBL document CHEMBL2429749, “Trichinenlides A-T, mexicanolide-type limonoids from Trichilia sinensis” (J Nat Prod, 2013)
# Test system: RAW264.7
# Assay: Antiinflammatory activity in mouse RAW264.7 cells assessed as inhibition of LPS-induced nitric oxide production preincubated for 2 hrs followed by LPS challenge measured after 24 hrs
# Format: functional, cell-based
row,IC50,SMILES
1,3.33 µM,C/C=C/C(=O)O[C@H]1C(C)(C)[C@H](CC(=O)OC)[C@]2(C)C(=O)[C@@]1(O)[C@H]1O[C@]13[C@@H]1CC(=O)O[C@@H](c4ccoc4)[C@]1(C)CC[C@H]23
2,2.85 µM,C/C=C/C(=O)O[C@H]1C(C)(C)[C@H](CC(=O)OC)[C@]2(C)C(=O)[C@@]1(O)[C@H]1O[C@@]13C2=CC[C@]1(C)[C@H]3CC(=O)O[C@H]1c1ccoc1 [TRICHINENLIDE B]
3,1.88 µM,C/C=C/C(=O)O[C@H]1C(C)(C)[C@H](C(O)C(=O)OC)[C@]2(C)C(=O)[C@@]1(O)[C@H]1O[C@@]13C2=CC[C@]1(C)[C@H]3CC(=O)O[C@H]1c1ccoc1 (some centres undefined) [TRICHINENLIDE C]
4,5 µM,COc1cc(/C=C/C(=O)CC(=O)/C=C/c2ccc(O)c(OC)c2)ccc1O [CURCUMIN]
